Laboratory results: PubChem BioAssay AID256 (DTP/NCI, 2004)
Values joined by “and” are separate entries in the source; they are usually repeats but may differ in a detail not shown here. Identical values can stand only once. Toxic doses and inconclusive results are not listed. Rule for the calls: active = survival T/C of 150% or more; inactive = T/C below 125% in these data.

Tested on: CD2F1 mice, L1210 leukemia ip, survival T/C
Test: NCI In Vivo Anticancer Drug Screen. Data for tumor model L1210 Leukemia (intraperitoneal) in CD2F1 (CDF1) mice
Details: higher = longer survival
Summary of the method: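 Ratio T/C, where T is the treated-group value and C the vehicle-dosed control value, from mice implanted with a transplantable tumor.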

Measured: T/C

CCC(/C=C/C1OC(=O)C=CC1C)=C\C(C)C/C=C/C(C)=C/C(C)C(=O)C(C)C(O)C(C)C/C(C)=C/C(=O)O (stereo unspecified)
inactive: endpoint: median survival time, dose: 6.25 micrograms/kg/injection, schedule: Q01DX005 (ip), vehicle: saline + alcohol 120 % of control | endpoint: median survival time, dose: 12.5 micrograms/kg/injection, schedule: Q01DX005 (ip), vehicle: saline + alcohol 119 % of control | endpoint: median survival time, dose: 12.5 micrograms/kg/injection, schedule: Q01DX009 (ip), vehicle: saline + alcohol 101 % of control | endpoint: median survival time, dose: 25.0 micrograms/kg/injection, schedule: Q01DX005 (ip), vehicle: saline + alcohol 120 % of control | endpoint: median survival time, dose: 25.0 micrograms/kg/injection, schedule: Q01DX009 (ip), vehicle: saline + alcohol 101 % of control | endpoint: median survival time, dose: 50.0 micrograms/kg/injection, schedule: Q01DX009 (ip), vehicle: saline + alcohol 115 % of control

CC1CC(=O)C(CCC#N)=C(O)C1 (stereo unspecified)
inactive: endpoint: mean survival time, dose: 100.0 mg/kg/injection, schedule: Q04DX003 (ip), vehicle: saline with Tween-80 94 % of control | endpoint: mean survival time, dose: 200.0 mg/kg/injection, schedule: Q04DX003 (ip), vehicle: saline with Tween-80 91 % of control | endpoint: mean survival time, dose: 400.0 mg/kg/injection, schedule: Q04DX003 (ip), vehicle: saline with Tween-80 91 % of control

CC(=O)/C(=C\c1ccc(/C=C(\C(C)=O)C(=O)CCN(C)C)cc1)C(=O)CCN(C)C
inactive: endpoint: median survival time, dose: 25.0 mg/kg/injection, schedule: Q01DX005 (ip), vehicle: saline with Tween-80 102 % of control | endpoint: median survival time, dose: 50.0 mg/kg/injection, schedule: Q01DX005 (ip), vehicle: saline with Tween-80 102 % of control | endpoint: median survival time, dose: 100.0 mg/kg/injection, schedule: Q01DX005 (ip), vehicle: saline with Tween-80 101 % of control | endpoint: median survival time, dose: 200.0 mg/kg/injection, schedule: Q01DX005 (ip), vehicle: saline with Tween-80 98 % of control | endpoint: median survival time, dose: 400.0 mg/kg/injection, schedule: Q01DX005 (ip), vehicle: saline with Tween-80 102 % of control

O=C1c2ccccc2C(=O)N1CBr
inactive: endpoint: mean survival time, dose: 12.5 mg/kg/injection, schedule: Q01DX009 (ip), vehicle: saline with Tween-80 100 % of control | endpoint: mean survival time, dose: 25.0 mg/kg/injection, schedule: Q01DX009 (ip), vehicle: saline with Tween-80 97 % of control | endpoint: mean survival time, dose: 50.0 mg/kg/injection, schedule: Q01DX009 (ip), vehicle: saline with Tween-80 98 % of control

N[C@@H](Cc1ccc(N(CCCl)CCCl)cc1)C(=O)O
inactive: endpoint: mean survival time, dose: 0.25 mg/kg/injection, schedule: Q01DX009 (ip), vehicle: Klucel (hydroxypropylcellulose) (HPC) 106 % of control and 108 % of control | endpoint: mean survival time, dose: 0.25 mg/kg/injection, schedule: Q01DX009 (ip), vehicle: saline 106 % of control | endpoint: mean survival time, dose: 0.25 mg/kg/injection, schedule: Q04DX003 (ip), vehicle: saline 113 % of control | endpoint: mean survival time, dose: 0.5 mg/kg/injection, schedule: Q01DX009 (ip), vehicle: water 113 % of control and 112 % of control | endpoint: mean survival time, dose: 0.5 mg/kg/injection, schedule: Q04DX003 (ip), vehicle: saline 118 % of control | endpoint: mean survival time, dose: 0.75 mg/kg/injection, schedule: Q01DX009 (ip), vehicle: Klucel (hydroxypropylcellulose) (HPC) 115 % of control | endpoint: mean survival time, dose: 1.0 mg/kg/injection, schedule: Q01DX009 (ip), vehicle: water 115 % of control and 123 % of control | endpoint: mean survival time, dose: 1.0 mg/kg/injection, schedule: Q## X010 (oral), vehicle: saline 118 % of control | endpoint: mean survival time, dose: 2.0 mg/kg/injection, schedule: Q01DX001 (ip), vehicle: Klucel (hydroxypropylcellulose) (HPC) 118 % of control | endpoint: mean survival time, dose: 2.0 mg/kg/injection, schedule: Q01DX001 (ip), vehicle: other 108 % of control | endpoint: mean survival time, dose: 2.0 mg/kg/injection, schedule: Q01DX001 (ip), vehicle: saline with Tween-80 122 % of control | endpoint: mean survival time, dose: 2.0 mg/kg/injection, schedule: Q01DX005 (oral), vehicle: saline 121 % of control | endpoint: mean survival time, dose: 2.0 mg/kg/injection, schedule: Q## X016 (oral), vehicle: saline 103 % of control | endpoint: mean survival time, dose: 4.0 mg/kg/injection, schedule: Q01DX001 (ip), vehicle: Klucel (hydroxypropylcellulose) (HPC) 119 % of control | endpoint: mean survival time, dose: 4.0 mg/kg/injection, schedule: Q01DX001 (ip), vehicle: other 121 % of control | endpoint: mean survival time, dose: 4.0 mg/kg/injection, schedule: Q## X016 (oral), vehicle: saline 104 % of control | endpoint: mean survival time, dose: 8.0 mg/kg/injection, schedule: Q01DX009 (ip), vehicle: water 120 % of control and 108 % of control | endpoint: mean survival time, dose: 8.0 mg/kg/injection, schedule: Q## X010 (oral), vehicle: saline 96 % of control | endpoint: mean survival time, dose: 32.0 mg/kg/injection, schedule: Q01DX001 (ip), vehicle: Klucel (hydroxypropylcellulose) (HPC) 115 % of control | endpoint: median survival time, dose: 10.0 mg/kg/injection, schedule: Q01DX001 (ip), vehicle: Klucel (hydroxypropylcellulose) (HPC) 118 % of control | endpoint: median survival time, dose: 15.0 mg/kg/injection, schedule: Q01DX009 (ip), vehicle: saline 114 % of control and 105 % of control
active: endpoint: mean survival time, dose: 2.0 mg/kg/injection, schedule: Q01DX007 (ip), vehicle: saline 166 % of control | endpoint: mean survival time, dose: 2.0 mg/kg/injection, schedule: Q01DX009 (ip), vehicle: water 153 % of control | endpoint: mean survival time, dose: 2.5 mg/kg/injection, schedule: Q01DX009 (ip), vehicle: saline 166 % of control | endpoint: mean survival time, dose: 2.5 mg/kg/injection, schedule: Q04DX003 (ip), vehicle: saline 153 % of control | endpoint: mean survival time, dose: 3.0 mg/kg/injection, schedule: Q01DX009 (ip), vehicle: Klucel (hydroxypropylcellulose) (HPC) 164 % of control | endpoint: mean survival time, dose: 4.0 mg/kg/injection, schedule: Q01DX007 (ip), vehicle: saline 168 % of control | endpoint: mean survival time, dose: 4.0 mg/kg/injection, schedule: Q01DX009 (ip), vehicle: water 155 % of control and 208 % of control | endpoint: mean survival time, dose: 4.0 mg/kg/injection, schedule: Q03DX003 (ip), vehicle: saline 170 % of control | endpoint: mean survival time, dose: 4.0 mg/kg/injection, schedule: Q## X010 (ip), vehicle: saline 160 % of control | endpoint: mean survival time, dose: 4.5 mg/kg/injection, schedule: Q04DX003 (ip), vehicle: saline 152 % of control | endpoint: mean survival time, dose: 5.0 mg/kg/injection, schedule: Q01DX009 (ip), vehicle: saline 198 % of control | endpoint: mean survival time, dose: 6.0 mg/kg/injection, schedule: Q04DX003 (ip), vehicle: saline 158 % of control | endpoint: mean survival time, dose: 7.5 mg/kg/injection, schedule: Q01DX001 (ip), vehicle: saline 158 % of control | endpoint: mean survival time, dose: 7.5 mg/kg/injection, schedule: Q01DX009 (ip), vehicle: saline 198 % of control | endpoint: mean survival time, dose: 7.5 mg/kg/injection, schedule: Q04DX003 (ip), vehicle: saline 198 % of control and 266 % of control | endpoint: mean survival time, dose: 8.0 mg/kg/injection, schedule: Q01DX001 (ip), vehicle: DMSO 180 % of control | endpoint: mean survival time, dose: 8.0 mg/kg/injection, schedule: Q01DX001 (ip), vehicle: Klucel (hydroxypropylcellulose) (HPC) 180 % of control | endpoint: mean survival time, dose: 8.0 mg/kg/injection, schedule: Q01DX001 (ip), vehicle: saline with Tween-80 165 % of control | endpoint: mean survival time, dose: 8.0 mg/kg/injection, schedule: Q03DX003 (ip), vehicle: saline 211 % of control | endpoint: mean survival time, dose: 9.0 mg/kg/injection, schedule: Q04DX003 (ip), vehicle: saline 217 % of control | endpoint: mean survival time, dose: 12.0 mg/kg/injection, schedule: Q04DX003 (ip), vehicle: saline 240 % of control | endpoint: mean survival time, dose: 16.0 mg/kg/injection, schedule: Q01DX001 (ip), vehicle: DMSO 221 % of control | endpoint: mean survival time, dose: 16.0 mg/kg/injection, schedule: Q01DX001 (ip), vehicle: Klucel (hydroxypropylcellulose) (HPC) 189 % of control | endpoint: mean survival time, dose: 16.0 mg/kg/injection, schedule: Q01DX001 (ip), vehicle: saline with Tween-80 265 % of control | endpoint: mean survival time, dose: 16.0 mg/kg/injection, schedule: Q## X016 (oral), vehicle: saline 164 % of control | endpoint: mean survival time, dose: 20.0 mg/kg/injection, schedule: Q01DX001 (ip), vehicle: saline 303 % of control and 427 % of control | endpoint: mean survival time, dose: 32.0 mg/kg/injection, schedule: Q01DX001 (ip), vehicle: other 217 % of control | endpoint: mean survival time, dose: 32.0 mg/kg/injection, schedule: Q01DX001 (ip), vehicle: saline with Tween-80 183 % of control | endpoint: median survival time, dose: 1.0 mg/kg/injection, schedule: Q01DX009 (ip), vehicle: saline 151 % of control | endpoint: median survival time, dose: 1.25 mg/kg/injection, schedule: Q01DX009 (ip), vehicle: saline 170 % of control | endpoint: median survival time, dose: 1.5 mg/kg/injection, schedule: Q04DX003 (ip), vehicle: Klucel (hydroxypropylcellulose) (HPC) 191 % of control | endpoint: median survival time, dose: 2.0 mg/kg/injection, schedule: Q01DX005 (ip), vehicle: saline 152 % of control | endpoint: median survival time, dose: 2.0 mg/kg/injection, schedule: Q01DX009 (ip), vehicle: saline 176 % of control | endpoint: median survival time, dose: 2.5 mg/kg/injection, schedule: Q01DX001 (ip), vehicle: Klucel (hydroxypropylcellulose) (HPC) 150 % of control and 195 % of control | endpoint: median survival time, dose: 2.5 mg/kg/injection, schedule: Q01DX009 (ip), vehicle: saline 205 % of control | endpoint: median survival time, dose: 3.0 mg/kg/injection, schedule: Q04DX003 (ip), vehicle: Klucel (hydroxypropylcellulose) (HPC) 182 % of control | endpoint: median survival time, dose: 3.75 mg/kg/injection, schedule: Q01DX009 (ip), vehicle: saline 158 % of control | endpoint: median survival time, dose: 4.0 mg/kg/injection, schedule: Q01DX005 (ip), vehicle: saline 176 % of control | endpoint: median survival time, dose: 4.0 mg/kg/injection, schedule: Q01DX009 (ip), vehicle: saline 227 % of control | endpoint: median survival time, dose: 5.0 mg/kg/injection, schedule: Q01DX009 (ip), vehicle: saline 357 % of control | endpoint: median survival time, dose: 8.0 mg/kg/injection, schedule: Q01DX005 (ip), vehicle: saline 211 % of control | endpoint: median survival time, dose: 8.0 mg/kg/injection, schedule: Q01DX009 (ip), vehicle: saline 234 % of control | endpoint: median survival time, dose: 12.0 mg/kg/injection, schedule: Q01DX001 (ip), vehicle: saline 183 % of control and 193 % of control
